{"source": "patent US20090123419A1", "about": "“TREATMENT OF UTERINE CANCER AND OVARIAN CANCER WITH A PARP INHIBITOR ALONE OR IN COMBINATION WITH ANTI-TUMOR AGENTS” (BiPar Sciences, priority 2007, published 2009)", "key": {"PARP": {"biological_target": "T1, PARP (Homo sapiens, UniProt P09874)", "T1 construct": "endogenous in cells; host or cells: peripheral blood mononuclear cells from patients dosed with BA", "T1 sequence (P09874 whole entry)": "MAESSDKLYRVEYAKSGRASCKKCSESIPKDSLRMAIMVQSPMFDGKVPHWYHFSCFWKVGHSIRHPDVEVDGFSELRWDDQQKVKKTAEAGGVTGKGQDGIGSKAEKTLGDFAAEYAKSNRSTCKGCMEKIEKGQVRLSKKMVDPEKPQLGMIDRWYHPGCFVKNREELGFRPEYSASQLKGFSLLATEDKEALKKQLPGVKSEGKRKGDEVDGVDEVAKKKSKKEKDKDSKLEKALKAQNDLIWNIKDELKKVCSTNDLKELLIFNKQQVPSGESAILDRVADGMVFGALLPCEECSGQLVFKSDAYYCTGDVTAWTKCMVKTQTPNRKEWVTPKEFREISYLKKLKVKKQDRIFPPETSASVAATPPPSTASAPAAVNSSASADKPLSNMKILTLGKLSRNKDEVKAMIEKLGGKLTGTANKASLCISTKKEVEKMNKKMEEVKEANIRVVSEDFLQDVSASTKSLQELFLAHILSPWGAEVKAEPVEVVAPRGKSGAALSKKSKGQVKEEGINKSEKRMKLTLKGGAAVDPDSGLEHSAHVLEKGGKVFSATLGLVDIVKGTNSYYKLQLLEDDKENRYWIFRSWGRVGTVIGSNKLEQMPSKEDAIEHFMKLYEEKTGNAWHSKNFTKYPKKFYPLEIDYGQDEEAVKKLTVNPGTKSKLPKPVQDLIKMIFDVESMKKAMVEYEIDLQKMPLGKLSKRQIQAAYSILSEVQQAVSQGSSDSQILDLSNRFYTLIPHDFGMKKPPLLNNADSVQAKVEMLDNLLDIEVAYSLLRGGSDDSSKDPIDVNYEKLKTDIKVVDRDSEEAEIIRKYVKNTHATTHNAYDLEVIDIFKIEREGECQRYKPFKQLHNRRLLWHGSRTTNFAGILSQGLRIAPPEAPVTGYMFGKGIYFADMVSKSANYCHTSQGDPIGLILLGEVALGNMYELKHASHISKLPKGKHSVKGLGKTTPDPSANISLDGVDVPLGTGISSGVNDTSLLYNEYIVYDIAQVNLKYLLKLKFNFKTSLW", "assay": "PARP activity assay in peripheral blood mononuclear cells (PBMCs) from patients", "format": "in vivo", "settings": "for PARP inhibition in PBMCs: after multiple dosing with BA doses of 2.8 mg/kg or higher, FIG. 5, 2.8 mg/kg", "method": "Whole blood is collected into EDTA vacutainers and human PBMCs are obtained by BD Vacutainer™ CPT™ Cell Preparation kit according to the manufacturer's instructions (BD Vacutainer™, REF 362760). Tumor samples are collected in a sterile container and placed immediately on ice. Within 30 minutes, tumor samples are snap-frozen in liquid nitrogen and stored at −80° C. until homogenized for analysis. The specimen is defrosted on ice and the wet weight is documented. The tissue is homogenized using isotonic buffer [7 mmol/L HEPES, 26 mmol/L KCl, 0.1 mmol/L dextran, 0.4 mmol/L EGTA, 0.5 mmol/L MgCl2, 45 mmol/L sucrose (pH 7.8)]. The homogenate is kept on ice throughout the process, and homogenization is done in 10-second bursts to prevent undue warming of the sample. Unless assayed on the day of homogenization, samples are refrozen to −80° C. and stored at this temperature until analyzed.\nCell preparations are defrosted rapidly at room temperature and washed twice in ice-cold PBS. […] Maximally stimulated PARP activity is measured in replicate samples of 20,000 cells in a reaction mixture containing […] NAD+ and 10 mg/mL oligonucleotide in a reaction buffer of 100 mmol/L Tris-HCl, 120 mmol/L MgCl2 (pH 7.8) in a final volume of […] as described previously (24) at 26° C. in an oscillating water bath. […] Purified PAR standards are loaded onto each membrane (0-25 pmol monomer equivalent) to generate a standard curve and allow quantification. […] Chemiluminesence detected during a 5-minute exposure is measured using a Fuji LAS3000 UV Illuminator (Raytek, Sheffield, United Kingdom) and digitized using the imaging software (Fuji LAS Image version 1.1, Raytek). The acquired image is analyzed using Aida Image Analyzer (version 3.28.001), and results are expressed in LAU/mm2. Three background areas on the exposed blot are measured and the mean of the background signal from the membrane is subtracted from all results. The PAR polymer standard curve is analyzed using an unweighted one-site binding nonlinear regression model and unknowns read off the standard curve so generated. […]"}, "[1]": {"settings": "in vivo", "method": "The protocol has been amended to evaluate BA in combination with chemotherapy in specific tumor types.\nBA Dosing: • Twice weekly; i.v. infusion • Standard 3+3 design for BA dose escalation • Dose levels studied: 2.0, 2.8, 4.0, 5.6, 8.0, and up to 11.2 mg/kg\nSafety, tolerability and MTD of each combination"}, "[2]": {"tested_on": "cervical adenocarcinoma Hela cells", "assay": "BrdU cell proliferation assay in Hela cells", "format": "cell-based, human", "settings": "BA at various concentrations, FIG. 6", "method": "The effect of BA on the proliferation of cervical adenocarcinoma Hela cells is examined. Cell proliferation is assessed by BrdU assay as described herein.\nHela cell is an immortal cell line used in medical research. The cell line was derived from cervical cancer cells. HeLa S3 is a clonal derivative of the parent HeLa line. The HeLa S3 clone has been very useful in the clonal analysis of mammalian cell populations relating to chromosomal variation, cell nutrition, and plaque-forming ability. HeLa cells have been reported to contain human papilloma virus 18 (HPV-18) sequences. Cells are cultured according to the standard protocol (ATCC) in the art. Briefly: 1. Remove and discard culture medium. 2. […] 3. Add 2.0 to 3.0 ml of Trypsin-EDTA solution to flask and observe cells under an inverted microscope until cell layer is dispersed (usually within 5 to 15 minutes). Cells that are difficult to detach may be placed at 37° C. to facilitate dispersal. 4. Add 6.0 to 8.0 ml of complete growth medium and aspirate cells by gently pipetting. 5. Add appropriate aliquots of the cell suspension to new culture vessels. 6. Incubate cultures at 37° C.\nBrdU assay is well known in the art. […] The immune complexes are detected by the subsequent substrate reaction via chemiluminescent detection (based on Cell Proliferation ELISA, BrdU Chemiluminescence Protocol from Roche). […]"}, "[3]": {"tested_on": "human tumor cells including breast, colon, prostate, cervix, lung, and ovarian cancers", "assay": "In vitro activity of BA against cancer cells", "format": "cell-based"}}}
{"molecule": "NC(=O)c1ccc(I)c([N+](=O)[O-])c1", "note": "[BA, 4-iodo-3-nitrobenzamide]", "values": [{"measurement": "PARP inhibition in PBMCs", "setting": "PARP", "result": "significant and prolonged PARP inhibition"}, {"measurement": "PARP inhibition in PBMCs", "setting": "PARP; listed as 4-iodo-3-nitrobenzamide", "result": "PARP inhibition"}, {"measurement": "biologically relevant dose that elicits significant and sustained PARP inhibition", "setting": "PARP; at effective preclinical blood concentrations", "result": 2.8, "unit": "mg/kg"}, {"measurement": "potentiation of known toxicities or increased frequency of expected toxicities of cytotoxic regimens", "setting": "[1]", "result": "no evidence"}, {"measurement": "proliferation of cervical adenocarcinoma Hela cells", "setting": "[2]", "result": "inhibits proliferation"}, {"measurement": "proliferation of human tumor cells", "setting": "[3]; in vitro, breast, colon, prostate, cervix, lung, and ovarian cancers", "result": "inhibits the proliferation"}, {"measurement": "activity against cancer cells in vitro", "setting": "[3]; including drug resistant cell lines", "result": "active against a broad range of cancer cells"}]}
